Where two headings read alike, the source gives them in different places.
Key:
[1] = molecular target: T1, human CB1 receptor (Homo sapiens, UniProt P21554); experiment: hCB1 receptor binding (3H-CP55,940 displacement)
T1 construct: purchased Perkin-Elmer
Experimental: hCB1 and hCB2 Receptor Binding
Membranes are produced from either HEK 293S cells expressing the cloned human CB1 receptor (hCB1: clone #24) or Sf9 cells, using the baculovirus system, expressing the cloned human CB2 receptor (hCB2). The membranes are thawed at 37° C., passed 3 times through a 23-gauge blunt-end needle, diluted in the cannabinoid binding buffer (50 mM Tris, 2.5 mM EDTA, 5 mM MgCl2, and 0.5 mg/mL BSA fatty acid free, pH 7.4) and aliquots containing the appropriate amount of protein are distributed in 96-well plates. The IC50 of the compounds of the present invention at hCB1 and hCB2 are evaluated from 10-point dose-response curves done with ^3H-CP55,940 at 20000 to 25000 dpm per well (0.17-0.21 nM) in a final volume of 300 μl. The total and non-specific binding are determined in the absence and presence of 0.2 μM of HU210 respectively. The plates are vortexed and incubated for 60 minutes at room temperature, filtered through Unifilters GF/B (pre-soaked in 0.1% polyethyleneimine) with the Packard harvester using 3 mL of wash buffer (50 mM Tris, 5 mM MgCl2, 0.5 mg BSA pH 7.0). The filters are dried for 1 hour at 55° C. The radioactivity (cpm) is counted in a TopCount (Packard) after adding 65 μl/well of MS-20 scintillation liquid.
Based on the above assays, the dissociation constant (Ki) for a particular compound of the present invention towards a particular receptor is determined using the following equation: […]
wherein IC50 is the concentration of the compound of the present invention at which 50% displacement has been observed; [rad] is a standard or reference radioactive ligand concentration at that moment; Kd is the dissociation constant of the radioactive ligand towards the particular receptor.

[2] = molecular target: T1, human CB1 receptor; experiment: hCB1 GTPγS binding; type: biochemical; conditions: for Emax: read-out: Emax hCB1
Experimental: Cloned human CB1 receptor from Perkin-Elmer (hCB1) are thawed at 37° C., passed 3 times through a 23-gauge blunt-end needle and diluted in the GTPγS binding buffer (50 mM Hepes, 20 mM NaOH, 100 mM NaCl, 1 mM EDTA, 5 mM MgCl2, pH 7.4, 0.1% BSA). […] The basal and maximal stimulated binding is determined in absence and presence of 10 μM Win 55,212-2. The membranes are pre-incubated for 5 minutes with 112.5 μM GDP prior to distribution in plates (30 μM GDP final). The plates are vortexed and incubated for 60 minutes at room temperature, filtered on Unifilters GF/B (pre-soaked in water) with the Packard harvester using 3 ml of wash buffer (50 mM Tris, 5 mM MgCl2, 50 mM NaCl, pH 7.0). The filters are dried for 1 hour at 55° C. The radioactivity (cpm) is counted in a TopCount (Packard) after adding 65 μl/well of MS-20 scintillation liquid.

T1 sequence (P21554 whole entry): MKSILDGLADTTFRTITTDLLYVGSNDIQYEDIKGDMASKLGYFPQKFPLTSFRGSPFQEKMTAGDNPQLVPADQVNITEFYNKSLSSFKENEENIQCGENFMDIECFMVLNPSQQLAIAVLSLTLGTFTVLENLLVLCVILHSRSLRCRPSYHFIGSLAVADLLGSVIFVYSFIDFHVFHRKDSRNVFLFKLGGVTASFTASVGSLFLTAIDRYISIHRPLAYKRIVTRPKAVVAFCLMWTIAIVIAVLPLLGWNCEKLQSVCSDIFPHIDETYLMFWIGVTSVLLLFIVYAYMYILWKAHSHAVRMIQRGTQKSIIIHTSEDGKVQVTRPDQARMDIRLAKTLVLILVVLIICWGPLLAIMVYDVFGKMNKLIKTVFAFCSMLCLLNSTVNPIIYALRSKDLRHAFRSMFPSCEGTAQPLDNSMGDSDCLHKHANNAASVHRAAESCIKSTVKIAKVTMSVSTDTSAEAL

SMILES: CN(C)C(=O)COc1ccc(NC(=O)c2ccc(Cn3ccnn3)c3ccccc23)c(C(=O)NCC2CCC2)n1 [Example 6, N-(cyclobutylmethyl)-6-[2-(dimethylamino)-2-oxoethoxy]-3-{[4-(1H-1,2,3-triazol-1-ylmethyl)-1-naphthoyl]amino}pyridine-2-carboxamide]
- Ki [1]: 52 nM
- EC50 [2]: 80 nM
- Emax [2]: 88%

SMILES: O=C(COc1ccc(NC(=O)c2ccc(Cn3ccnn3)c3ccccc23)c(C(=O)NCC2CCC2)n1)NCCO [Example 7, N-(cyclobutylmethyl)-6-{2-[(2-hydroxyethyl)amino]-2-oxoethoxy}-3-{[4-(1H-1,2,3-triazol-1-ylmethyl)-1-naphthoyl]amino}pyridine-2-carboxamide]
- Ki [1]: 59 nM
- EC50 [2]: 120 nM
- Emax [2]: 110%

SMILES: O=C(NCC1CCC1)c1nc(OCc2ccccn2)ccc1NC(=O)c1ccc(Cn2ccnn2)c2ccccc12 [Example 14, N-(cyclobutylmethyl)-6-(pyridin-2-ylmethoxy)-3-{[4-(1H-1,2,3-triazol-1-ylmethyl)-1-naphthoyl]amino}pyridine-2-carboxamide]
- Ki [1]: 3.2 nM
- EC50 [2]: 7.3 nM
- Emax [2]: 110%

SMILES: COCc1cnnn1Cc1ccc(C(=O)Nc2cccnc2C(=O)NCC2CCC2)c2ccccc12 [Example 15, N-(cyclobutylmethyl)-3-[(4-{[5-(methoxymethyl)-1H-1,2,3-triazol-1-yl]methyl}-1-naphthoyl)amino]pyridine-2-carboxamide]
- Ki [1]: 13 nM
- EC50 [2]: 22 nM
- Emax [2]: 120%

SMILES: O=C(COc1ccc(NC(=O)c2ccc(Cn3ccnn3)c3ccccc23)c(C(=O)NCC2CCC2)n1)NCc1ccccc1 [Example 27, 6-(Benzylcarbamoyl-methoxy)-3-[(4-[1,2,3]triazol-1-ylmethyl-naphthalene-1-carbonyl)-amino]-pyridine-2-carboxylic Acid Cyclobutylmethyl-amide]
- Ki [1]: 35 nM
- EC50 [2]: 42 nM
- Emax [2]: 94%

SMILES: CC(C)OC(=O)COc1ccc(NC(=O)c2ccc(Cn3ccnn3)c3ccccc23)c(C(=O)NCC2CCC2)n1 [Example 29, {6-(Cyclobutylmethyl-carbamoyl)-5-[(4-[1,2,3]triazol-1-ylmethyl-naphthalene-1-carbonyl)-amino]-pyridin-2-yloxy}-acetic Acid Isopropyl Ester]
- Ki [1]: 5.4 nM
- EC50 [2]: 7.1 nM
- Emax [2]: 80%

SMILES: COCc1ccc(C(=O)Nc2ccc(OCCO)nc2C(=O)NCC2CCOCC2)c2ccccc12 [Example 35, 6-(2-Hydroxy-ethoxy)-3-[(4-methoxymethyl-naphthalene-1-carbonyl)-amino]-pyridine-2-carboxylic Acid (tetrahydro-pyran-4-ylmethyl)-amide]
- Ki [1]: 53 nM
- EC50 [2]: 99 nM
- Emax [2]: 93%

SMILES: O=C(NCC1CCOCC1)c1nc(OS(=O)(=O)CCC(F)(F)F)cnc1NC(=O)c1ccc(Cn2ccnn2)c2ccccc12 [Example 44, 6-[(Tetrahydro-2H-pyran-4-ylmethyl)carbamoyl]-5-{[4-(1H-1,2,3-triazol-1-ylmethyl)-1-naphthoyl]amino}pyrazin-2-yl 3,3,3-trifluoropropane-1-sulfonate]
- Ki [1]: 270 nM
- EC50 [2]: 240 nM
- Emax [2]: 140%

SMILES: O=C(NCC1CCC1)c1ncccc1NC(=O)c1ccc(Cn2cc(F)nn2)c2ccccc12 [Example 50, N-(Cyclobutylmethyl)-3-({4-[(4-fluoro-1H-1,2,3-triazol-1-yl)methyl]-1-naphthoyl}amino)pyridine-2-carboxamide]
- Ki [1]: 51 nM
- EC50 [2]: 46 nM
- Emax [2]: 48%

SMILES: O=C(NCC1CCOCC1)c1ncccc1NC(=O)c1csc2ccccc12 [Example 56, 3-[(1-benzothien-3-yl-carbonyl)amino]-N-(tetrahydro-2H-pyran-4-ylmethyl)pyridine-2-carboxamide]
- Ki ([1]; membranes of HEK 293S cells expressing cloned human CB1 receptor, Ki=IC50/(1+[rad]/Kd), read-out: Ki hCB1): 260 nM
- EC50 ([2]; GTPγ35S binding, cloned human CB1 receptor membranes, read-out: EC50 hCB1): 380 nM
- Emax [2]: 88%

— patent US20090181968A1, “Novel 3-Bicyclocarbonylaminopyridine-2-Carboxamides or 3-Bicyclocarbonylaminopyrazine-2-Carboxamides” (priority 2005, published 2009)
